Tests used:
Type in all cases: in vitro ADME
Conditions in all cases: 30 min, 37 °C
[1] = target: T1, CYP2A6 (Homo sapiens, UniProt P11509); assay: Monooxygenases activity screening, CYP2A6; set-up: key: +, detected; -, not detected
T1 construct: purchased Discovery Life Sciences (Huntsville, LA, USA); host or cells: baculovirus-infected insect cells (microsomes, Supersomes)
T1 sequence (P11509 1-494): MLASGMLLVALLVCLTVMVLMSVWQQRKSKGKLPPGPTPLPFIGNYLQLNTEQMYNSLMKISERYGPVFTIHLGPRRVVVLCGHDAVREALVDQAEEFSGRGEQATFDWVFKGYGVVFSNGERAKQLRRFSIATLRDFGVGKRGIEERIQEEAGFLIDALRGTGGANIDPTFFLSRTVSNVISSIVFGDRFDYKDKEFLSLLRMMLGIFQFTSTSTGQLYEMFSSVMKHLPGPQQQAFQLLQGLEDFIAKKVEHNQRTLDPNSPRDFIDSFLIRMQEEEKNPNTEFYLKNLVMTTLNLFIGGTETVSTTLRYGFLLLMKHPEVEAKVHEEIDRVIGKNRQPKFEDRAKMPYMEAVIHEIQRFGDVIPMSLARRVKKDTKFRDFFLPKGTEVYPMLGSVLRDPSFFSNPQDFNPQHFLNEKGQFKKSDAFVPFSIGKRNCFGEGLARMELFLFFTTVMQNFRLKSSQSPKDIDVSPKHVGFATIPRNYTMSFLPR
Protocol: (§1) For incubations with CYP2A6 or CYP2C9, phosphate buffer was replaced with 90 mM Tris buffer, according to the manufacturer’s guideline. […] All incubations were done in duplicate and concentrations were fixed. Verapamil (25 µM) was incubated as a positive control.

[2] = target: T2, CYP2D6 (Homo sapiens, UniProt P10635); assay: Monooxygenases activity screening, CYP2D6; set-up: key to one-step metabolite detected in CYP2D6 incubation: +, detected; -, not detected
T2 construct: purchased Discovery Life Sciences (Huntsville, LA, USA); host or cells: baculovirus-infected insect cells (microsomes, Supersomes)
T2 sequence (P10635 whole entry): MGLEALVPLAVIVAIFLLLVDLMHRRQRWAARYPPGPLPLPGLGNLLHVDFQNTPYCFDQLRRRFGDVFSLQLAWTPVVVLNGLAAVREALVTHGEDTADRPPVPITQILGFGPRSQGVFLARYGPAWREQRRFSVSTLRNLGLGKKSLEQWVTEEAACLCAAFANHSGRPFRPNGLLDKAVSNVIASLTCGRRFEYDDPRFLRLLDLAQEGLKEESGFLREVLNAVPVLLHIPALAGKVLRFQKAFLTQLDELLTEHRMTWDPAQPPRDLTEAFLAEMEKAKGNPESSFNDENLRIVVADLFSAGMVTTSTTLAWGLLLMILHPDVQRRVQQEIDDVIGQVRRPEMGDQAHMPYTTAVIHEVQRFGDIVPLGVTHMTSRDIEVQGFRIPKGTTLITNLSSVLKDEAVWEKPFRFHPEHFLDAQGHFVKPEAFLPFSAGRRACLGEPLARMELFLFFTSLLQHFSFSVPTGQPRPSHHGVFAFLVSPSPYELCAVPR
Protocol: as §1

[3] = target: T3, CYP2C8 (Homo sapiens, UniProt P10632); assay: Monooxygenases activity screening, CYP2C8; set-up: key: +, detected; -, not detected
T3 construct: purchased Discovery Life Sciences (Huntsville, LA, USA); host or cells: baculovirus-infected insect cells (microsomes, Supersomes)
T3 sequence (P10632 1-490): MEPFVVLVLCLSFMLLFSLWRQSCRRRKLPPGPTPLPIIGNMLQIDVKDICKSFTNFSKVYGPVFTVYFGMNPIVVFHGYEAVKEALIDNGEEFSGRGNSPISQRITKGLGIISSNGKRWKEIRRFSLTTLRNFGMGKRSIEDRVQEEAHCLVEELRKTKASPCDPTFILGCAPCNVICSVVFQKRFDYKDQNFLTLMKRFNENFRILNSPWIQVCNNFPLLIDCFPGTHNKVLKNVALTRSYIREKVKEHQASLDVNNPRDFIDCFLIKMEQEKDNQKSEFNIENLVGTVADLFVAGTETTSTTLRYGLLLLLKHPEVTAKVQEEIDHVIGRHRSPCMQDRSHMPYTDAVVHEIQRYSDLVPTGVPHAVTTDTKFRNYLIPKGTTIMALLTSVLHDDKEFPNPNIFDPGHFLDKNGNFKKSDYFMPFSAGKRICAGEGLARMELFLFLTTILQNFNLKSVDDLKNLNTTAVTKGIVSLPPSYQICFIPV
Protocol: as §1

[4] = target: T4, CYP2B6 (Homo sapiens, UniProt P20813); assay: Monooxygenases activity screening, CYP2B6; set-up: key: +, detected; -, not detected
T4 construct: purchased Discovery Life Sciences (Huntsville, LA, USA); host or cells: baculovirus-infected insect cells (microsomes, Supersomes)
T4 sequence (P20813 1-491): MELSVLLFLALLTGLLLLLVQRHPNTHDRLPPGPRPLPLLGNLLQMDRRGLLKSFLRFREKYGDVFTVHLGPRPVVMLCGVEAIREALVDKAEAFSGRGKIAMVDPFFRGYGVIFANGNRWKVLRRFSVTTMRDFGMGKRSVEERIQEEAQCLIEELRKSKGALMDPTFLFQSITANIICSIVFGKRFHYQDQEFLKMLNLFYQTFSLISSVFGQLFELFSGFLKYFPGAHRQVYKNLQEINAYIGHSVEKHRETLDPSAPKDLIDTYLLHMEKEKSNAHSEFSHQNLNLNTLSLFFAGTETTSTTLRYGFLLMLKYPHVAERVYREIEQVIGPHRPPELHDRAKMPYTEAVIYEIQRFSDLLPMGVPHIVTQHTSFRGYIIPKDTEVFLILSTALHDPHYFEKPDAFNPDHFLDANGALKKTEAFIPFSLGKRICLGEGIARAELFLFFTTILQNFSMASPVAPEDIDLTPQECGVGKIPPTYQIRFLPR
Protocol: as §1

[5] = target: T5, CYP3A4 (Homo sapiens, UniProt P08684); assay: Monooxygenases activity screening, CYP3A4; set-up: key: +, detected; -, not detected
T5 construct: purchased Discovery Life Sciences (Huntsville, LA, USA); host or cells: baculovirus-infected insect cells (microsomes, Supersomes)
T5 sequence (P08684 whole entry): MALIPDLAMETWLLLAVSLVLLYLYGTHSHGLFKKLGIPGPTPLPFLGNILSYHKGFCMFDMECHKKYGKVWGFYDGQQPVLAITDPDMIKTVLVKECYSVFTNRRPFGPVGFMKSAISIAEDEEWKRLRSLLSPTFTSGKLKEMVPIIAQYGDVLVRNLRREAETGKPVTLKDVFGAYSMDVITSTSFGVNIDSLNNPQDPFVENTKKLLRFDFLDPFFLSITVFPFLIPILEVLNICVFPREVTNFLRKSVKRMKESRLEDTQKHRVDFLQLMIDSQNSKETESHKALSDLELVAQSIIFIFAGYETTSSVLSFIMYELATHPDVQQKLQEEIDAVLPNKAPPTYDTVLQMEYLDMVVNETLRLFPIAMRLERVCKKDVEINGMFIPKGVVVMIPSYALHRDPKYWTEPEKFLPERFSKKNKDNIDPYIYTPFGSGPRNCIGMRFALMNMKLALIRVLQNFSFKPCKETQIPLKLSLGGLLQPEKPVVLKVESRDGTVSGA
Protocol: as §1

[6] = target: T6, CYP1A2 (Homo sapiens, UniProt P05177); assay: Monooxygenases activity screening, CYP1A2; set-up: key: +, detected; -, not detected
T6 construct: purchased Discovery Life Sciences (Huntsville, LA, USA); host or cells: baculovirus-infected insect cells (microsomes, Supersomes)
T6 sequence (P05177 1-516): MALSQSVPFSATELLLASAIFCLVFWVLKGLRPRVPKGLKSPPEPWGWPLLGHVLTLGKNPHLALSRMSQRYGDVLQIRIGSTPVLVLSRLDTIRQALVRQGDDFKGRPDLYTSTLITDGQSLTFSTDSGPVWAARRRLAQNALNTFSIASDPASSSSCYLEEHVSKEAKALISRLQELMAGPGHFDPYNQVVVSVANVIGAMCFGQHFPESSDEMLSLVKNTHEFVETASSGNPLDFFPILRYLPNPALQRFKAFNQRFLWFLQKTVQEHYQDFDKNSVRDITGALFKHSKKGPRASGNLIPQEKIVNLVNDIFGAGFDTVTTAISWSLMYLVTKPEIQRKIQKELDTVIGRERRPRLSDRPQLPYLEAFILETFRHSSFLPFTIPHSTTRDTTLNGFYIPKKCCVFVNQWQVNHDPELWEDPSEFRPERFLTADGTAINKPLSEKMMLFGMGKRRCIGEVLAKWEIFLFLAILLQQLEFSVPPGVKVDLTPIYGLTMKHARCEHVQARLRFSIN
Protocol: as §1

[7] = target: T7, flavin-containing monooxygenase 3 (FMO3) (Homo sapiens, UniProt P31513); assay: Monooxygenases activity screening, FMO3; set-up: key: +, detected; -, not detected
T7 construct: purchased Discovery Life Sciences (Huntsville, LA, USA); host or cells: baculovirus-infected insect cells (microsomes, Supersomes)
T7 sequence (P31513 1-532): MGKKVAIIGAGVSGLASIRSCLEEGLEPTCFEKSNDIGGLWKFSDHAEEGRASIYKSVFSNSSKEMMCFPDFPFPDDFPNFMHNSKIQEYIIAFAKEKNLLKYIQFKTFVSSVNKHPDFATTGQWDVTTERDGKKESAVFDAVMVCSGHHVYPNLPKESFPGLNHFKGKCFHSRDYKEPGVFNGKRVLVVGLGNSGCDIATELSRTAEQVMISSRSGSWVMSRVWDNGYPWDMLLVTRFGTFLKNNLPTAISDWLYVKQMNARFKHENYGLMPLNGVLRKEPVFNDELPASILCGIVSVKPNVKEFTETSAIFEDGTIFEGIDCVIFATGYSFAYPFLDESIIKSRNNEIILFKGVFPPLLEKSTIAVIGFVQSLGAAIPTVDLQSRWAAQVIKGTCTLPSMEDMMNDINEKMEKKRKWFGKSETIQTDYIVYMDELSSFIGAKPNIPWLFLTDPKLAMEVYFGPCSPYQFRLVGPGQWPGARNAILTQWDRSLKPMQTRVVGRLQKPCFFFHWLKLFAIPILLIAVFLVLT
Protocol: as §1

[8] = target: T8, CYP2C19 (Homo sapiens, UniProt P33261); assay: Monooxygenases activity screening, CYP2C19; set-up: key: +, detected; -, not detected
T8 construct: purchased Discovery Life Sciences (Huntsville, LA, USA); host or cells: baculovirus-infected insect cells (microsomes, Supersomes)
T8 sequence (P33261 whole entry): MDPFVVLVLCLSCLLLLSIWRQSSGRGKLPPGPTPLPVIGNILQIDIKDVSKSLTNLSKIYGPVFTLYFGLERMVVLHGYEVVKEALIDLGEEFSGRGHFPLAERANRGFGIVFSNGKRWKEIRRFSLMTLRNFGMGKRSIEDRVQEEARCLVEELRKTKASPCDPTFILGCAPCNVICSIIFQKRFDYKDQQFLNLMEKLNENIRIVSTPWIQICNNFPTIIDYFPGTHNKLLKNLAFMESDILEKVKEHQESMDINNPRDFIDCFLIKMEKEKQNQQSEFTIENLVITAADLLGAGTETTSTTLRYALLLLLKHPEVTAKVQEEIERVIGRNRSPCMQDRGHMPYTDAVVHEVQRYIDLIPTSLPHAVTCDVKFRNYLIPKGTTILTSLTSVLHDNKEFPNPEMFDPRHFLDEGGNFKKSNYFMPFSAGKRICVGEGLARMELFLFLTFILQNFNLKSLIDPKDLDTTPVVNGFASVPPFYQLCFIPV
Protocol: as §1

[9] = target: T9, CYP2C9 (Homo sapiens, UniProt P11712); assay: Monooxygenases activity screening, CYP2C9; set-up: key: +, detected; -, not detected
T9 construct: purchased Discovery Life Sciences (Huntsville, LA, USA); host or cells: baculovirus-infected insect cells (microsomes, Supersomes)
T9 sequence (P11712 whole entry): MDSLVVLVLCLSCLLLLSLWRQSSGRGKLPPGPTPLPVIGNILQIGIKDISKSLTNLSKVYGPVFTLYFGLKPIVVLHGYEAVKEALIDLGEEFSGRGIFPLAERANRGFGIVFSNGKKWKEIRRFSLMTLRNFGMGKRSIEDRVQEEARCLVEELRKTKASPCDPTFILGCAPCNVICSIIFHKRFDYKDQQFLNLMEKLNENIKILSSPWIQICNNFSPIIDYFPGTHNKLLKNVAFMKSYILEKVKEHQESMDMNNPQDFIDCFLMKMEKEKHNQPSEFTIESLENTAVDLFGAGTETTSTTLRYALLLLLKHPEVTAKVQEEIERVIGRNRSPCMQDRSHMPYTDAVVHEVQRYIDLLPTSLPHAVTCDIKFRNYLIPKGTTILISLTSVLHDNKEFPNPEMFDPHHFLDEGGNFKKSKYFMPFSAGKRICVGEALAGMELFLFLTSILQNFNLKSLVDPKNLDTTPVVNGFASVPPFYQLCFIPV
Protocol: as §1

[10] = target: T10, CYP2E1 (Homo sapiens, UniProt P05181); assay: Monooxygenases activity screening, CYP2E1; set-up: key: +, detected; -, not detected
T10 construct: purchased Discovery Life Sciences (Huntsville, LA, USA); host or cells: baculovirus-infected insect cells (microsomes, Supersomes)
T10 sequence (P05181 whole entry): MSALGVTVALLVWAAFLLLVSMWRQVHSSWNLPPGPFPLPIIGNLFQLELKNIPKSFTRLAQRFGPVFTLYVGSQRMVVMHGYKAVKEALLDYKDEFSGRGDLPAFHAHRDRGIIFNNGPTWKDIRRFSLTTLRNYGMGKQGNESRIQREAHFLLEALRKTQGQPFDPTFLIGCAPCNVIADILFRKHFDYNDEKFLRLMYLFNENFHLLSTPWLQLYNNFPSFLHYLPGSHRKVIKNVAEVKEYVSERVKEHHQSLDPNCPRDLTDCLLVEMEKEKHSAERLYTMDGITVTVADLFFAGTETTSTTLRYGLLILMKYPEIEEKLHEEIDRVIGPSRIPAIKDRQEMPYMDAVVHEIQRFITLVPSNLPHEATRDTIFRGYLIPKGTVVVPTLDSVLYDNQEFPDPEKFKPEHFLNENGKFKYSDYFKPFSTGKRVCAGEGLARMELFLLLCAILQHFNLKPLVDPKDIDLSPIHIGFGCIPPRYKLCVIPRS
Protocol: as §1

[11] = target: T11, CYP3A5 (Homo sapiens, UniProt P20815); assay: Monooxygenases activity screening, CYP3A5; set-up: key: +, detected; -, not detected
T11 construct: purchased Discovery Life Sciences (Huntsville, LA, USA); host or cells: baculovirus-infected insect cells (microsomes, Supersomes)
T11 sequence (P20815 whole entry): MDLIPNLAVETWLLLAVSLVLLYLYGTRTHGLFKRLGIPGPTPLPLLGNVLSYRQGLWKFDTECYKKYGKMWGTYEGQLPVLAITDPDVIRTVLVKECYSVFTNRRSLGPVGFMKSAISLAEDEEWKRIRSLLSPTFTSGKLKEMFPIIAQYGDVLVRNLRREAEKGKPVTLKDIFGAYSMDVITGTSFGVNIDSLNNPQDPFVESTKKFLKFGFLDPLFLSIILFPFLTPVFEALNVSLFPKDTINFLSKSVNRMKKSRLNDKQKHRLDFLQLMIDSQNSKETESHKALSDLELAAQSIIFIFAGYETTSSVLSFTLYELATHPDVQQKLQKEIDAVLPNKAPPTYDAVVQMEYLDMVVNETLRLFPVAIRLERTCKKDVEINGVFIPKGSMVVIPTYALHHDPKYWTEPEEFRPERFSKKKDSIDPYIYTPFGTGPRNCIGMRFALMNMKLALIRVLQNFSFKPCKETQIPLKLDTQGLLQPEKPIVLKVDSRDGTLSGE
Protocol: as §1

[12] = substrate 4MeS-αP-BP 25 µM, Table S3.5
[13] = substrate 4MeO-αP-VP 25 µM, Table S3.3
[14] = substrate 4MeS-NE-BP 25 µM, Table S3.4
[15] = substrate 4MeO-αP-BP 25 µM, Table S3.2
[16] = substrate 4MeS-αMor-PrP 25 µM, Table S3.6

With `CCC(C(=O)c1ccc(S)cc1)N1CCCC1` (stereo not shown) [MT2.1] the “one-step metabolite detected in CYP2A6 incubation” value [1, 12] was “-”, the “one-step metabolite detected in CYP2D6 incubation” value [2, 12] was “+” and the “one-step metabolite detected in CYP2C8 incubation” value [3, 12] was “-”. For the same compound, the “one-step metabolite detected in CYP2B6 incubation” value [4, 12] was “-”, the “one-step metabolite detected in CYP3A4 incubation” value [5, 12] was “-” and the “one-step metabolite detected in CYP1A2 incubation” value [6, 12] was “-”. For the same compound, the “one-step metabolite detected in FMO3 incubation” value [7, 12] was “-”, the “one-step metabolite detected in CYP2C19 incubation” value [8, 12] was “-” and the “one-step metabolite detected in CYP2C9 incubation” value [9, 12] was “-”. For the same compound, the “one-step metabolite detected in CYP2E1 incubation” value [10, 12] was “-” and the “one-step metabolite detected in CYP3A5 incubation” value [11, 12] was “-”.
In the case of `CCCC(C(=O)c1ccc(OC)cc1)[N+]1([O-])CCCC1` (stereo not shown) [MO3.4], the “one-step metabolite detected in CYP2A6 incubation” value [1, 13] is reported as “+”, the “one-step metabolite detected in CYP2D6 incubation” value [2, 13] is reported as “+” and the “one-step metabolite detected in CYP2C8 incubation” value [3, 13] is reported as “-”. For the same compound, the “one-step metabolite detected in CYP2B6 incubation” value [4, 13] was “-”, the “one-step metabolite detected in CYP3A4 incubation” value [5, 13] was “+” and the “one-step metabolite detected in CYP1A2 incubation” value [6, 13] was “+”. For the same compound, the “one-step metabolite detected in FMO3 incubation” value [7, 13] was “+”, the “one-step metabolite detected in CYP2C19 incubation” value [8, 13] was “-” and the “one-step metabolite detected in CYP2C9 incubation” value [9, 13] was “-”. For the same compound, the “one-step metabolite detected in CYP2E1 incubation” value [10, 13] was “-” and the “one-step metabolite detected in CYP3A5 incubation” value [11, 13] was “-”.
In the case of `CCNC(CC)C(=O)c1ccc(S)cc1` (stereo not shown) [MT1.1], the “one-step metabolite detected in CYP2A6 incubation” value [1, 14] is reported as “-”, the “one-step metabolite detected in CYP2D6 incubation” value [2, 14] is reported as “+” and the “one-step metabolite detected in CYP2C8 incubation” value [3, 14] is reported as “-”. The “one-step metabolite detected in CYP2B6 incubation” value [4, 14] was “-”, the “one-step metabolite detected in CYP3A4 incubation” value [5, 14] was “-” and the “one-step metabolite detected in CYP1A2 incubation” value [6, 14] was “-”. The “one-step metabolite detected in FMO3 incubation” value [7, 14] was “-”, the “one-step metabolite detected in CYP2C19 incubation” value [8, 14] was “-” and the “one-step metabolite detected in CYP2C9 incubation” value [9, 14] was “-”. For the same compound, the “one-step metabolite detected in CYP2E1 incubation” value [10, 14] was “-” and the “one-step metabolite detected in CYP3A5 incubation” value [11, 14] was “-”.
`CCC(C(=O)c1ccc(O)cc1)N1CCCC1` (stereo not shown) [MO2.2] was tested, and the “one-step metabolite detected in CYP2A6 incubation” value [1, 15] was “-”, the “one-step metabolite detected in CYP2D6 incubation” value [2, 15] was “+” and the “one-step metabolite detected in CYP2C8 incubation” value [3, 15] was “-”. For the same compound, the “one-step metabolite detected in CYP2B6 incubation” value [4, 15] was “-”, the “one-step metabolite detected in CYP3A4 incubation” value [5, 15] was “-” and the “one-step metabolite detected in CYP1A2 incubation” value [6, 15] was “+”. For the same compound, the “one-step metabolite detected in FMO3 incubation” value [7, 15] was “-”, the “one-step metabolite detected in CYP2C19 incubation” value [8, 15] was “+” and the “one-step metabolite detected in CYP2C9 incubation” value [9, 15] was “-”. For the same compound, the “one-step metabolite detected in CYP2E1 incubation” value [10, 15] was “-” and the “one-step metabolite detected in CYP3A5 incubation” value [11, 15] was “-”.
In the case of `CSc1ccc(C(=O)C(C)[N+]2([O-])CCOCC2)cc1` (stereo not shown) [MT3.3], the “one-step metabolite detected in CYP2A6 incubation” value [1, 16] is reported as “+”, the “one-step metabolite detected in CYP2D6 incubation” value [2, 16] is reported as “-” and the “one-step metabolite detected in CYP2C8 incubation” value [3, 16] is reported as “-”. For the same compound, the “one-step metabolite detected in CYP2B6 incubation” value [4, 16] was “-”, the “one-step metabolite detected in CYP3A4 incubation” value [5, 16] was “-” and the “one-step metabolite detected in CYP1A2 incubation” value [6, 16] was “-”. For the same compound, the “one-step metabolite detected in FMO3 incubation” value [7, 16] was “+”, the “one-step metabolite detected in CYP2C19 incubation” value [8, 16] was “-” and the “one-step metabolite detected in CYP2C9 incubation” value [9, 16] was “-”. For the same compound, the “one-step metabolite detected in CYP2E1 incubation” value [10, 16] was “-” and the “one-step metabolite detected in CYP3A5 incubation” value [11, 16] was “-”.

Reference: article PMC12858467, “In vitro toxicokinetics and metabolic profiling of methoxycathinones and methylthiocathinones using human liver systems and hyphenated mass spectrometry” (Archives of Toxicology, 2025)
